Data: US20250092081A1, “USE OF GLYCOSYLTRASNFERASE INHIBITORS FOR TREATING CANCER” (CALIFORNIA INSTITUTE OF TECHNOLOGY, priority 2020, published 2025)
Blank lines part the entries; values can stand above or below the compound they belong to.

Experiments:
C. difficile spores = test: Spore viability testing; type: cell-based; settings: for Viability of C. difficile spores: x2 MIC, 24 hours, CFU on taurocholate agar
C. difficile ATCC43596 = test: Minimum inhibitory concentration assay; settings: 48 h, 37° C., anaerobic
sheep blood = test: Hemolysis of sheep blood; type: cell-based; settings: Ovis aries
[1] = Cytotoxicity MTT assay, L12210; type: cell-based; settings: mouse, L12210 cells
Method: (§1) Selected molecules were tested for cytotoxicity (IC50) in cancer and healthy cells via a MTT colorimetric assay.
(§2) Each cell was cultured in recommended medium by ATCC, and the IC50 data were obtained with each cell line.

[2] = Cytotoxicity MTT assay, KB; type: cell-based; settings: human, KB cells
Method: as §1, §2

[3] = Cytotoxicity MTT assay, LoVo; type: cell-based; settings: human, LoVo cells
Method: as §1, §2

[4] = Cytotoxicity MTT assay, SK-OV-3; type: cell-based; settings: human, SK-OV-3 cells
Method: as §1, §2

[5] = Cytotoxicity MTT assay, MDA-MB-435S; type: cell-based; settings: human, MDA-MB-435S cells
Method: as §1, §2

[6] = Cytotoxicity MTT assay, AsPc-1; type: cell-based; settings: human, AsPc-1 cells
Method: as §1, §2

[7] = Cytotoxicity MTT assay, Panc-1; type: cell-based; settings: human, Panc-1 cells
Method: as §1, §2

[8] = Cytotoxicity MTT assay, HPAF-II; type: cell-based; settings: human, HPAF-II cells
Method: as §1, §2

[9] = test system: AsPc-1 (pancreatic cancer) cells; test: Synergistic assay (checkerboard) on AsPc-1 cells; type: cell-based; settings: for IC50 A / IC50 B (drug alone): AsPc-1 cells
Method: Synergistic Assay. The synergistic or antagonistic activities of 11 with other cancer drugs on AsPc-1 (pancreatic cancer) cells were assessed in vitro via micro dilution broth checkerboard technique previously reported. The FIC index was calculated according to the following equation. ΣFIC=FICA+FICB=CA/MICA+CB/MICB where MICA and MICB are MIC of drugs A and B, CA and CB are the concentrations of drugs A and B used in combination. In these interaction studies, ΣFIC of less than 0.5 represents synergistic activity.
These experiments were performed in the same manner as those of Example 8.

MraY = MraY (Escherichia coli (strain K12), UniProt P0A6W3); test: MraY assay; type: biochemical; settings: relative to FR-900493 (1)
Vero cells = test: Cytotoxicity MTT assay, Vero cells; type: cell-based, monkey
Water solubility = type: physicochemical; settings: 11 relative to 10
C. difficile = test: Antibacterial activity (FIG. 4), C. difficile; type: cell-based
[10] = Cytotoxicity MTT assay, HCT 116; type: cell-based; settings: human, HCT 116 cells
Method: as §1, §2

Panc-1 cells = test: Boyden chamber migration assay, Panc-1; type: cell-based; settings: FIG. 7
AsPc-1 cells = test: Scratch (wound healing) assay, AsPc-1; type: cell-based; settings: FIG. 9
MDA-MB-231 cells [11] = test: Animal model of triple negative breast cancer (MDA-MB-231 implanted); type: in vivo; settings: mice, MDA-MB-231, 10 mg/kg/day, FIG. 10
Method: An animal model of triple negative breast cancer was generated by implantation of MDA-MB-231 cells into mice. […] A second group of mice were treated with paclitaxel at 15 mg/kg.

[12] = test system: patient-derived cell line (BCI-12); test: Animal model of Her2+ breast cancer (BCI-12 implanted); type: in vivo; settings: mice
Method: An animal model of Her2+ breast cancer was generated by implantation of cells of a patient-derived cell line (BCI-12) into mice. Said mice were treated with compound 11, with the therapeutic monoclonal antibody transtuzumab (TzMAb), or a combination of compound 11 and transtuzumab.

MDA-MB-231 cells [13] = test: Expression of tumor markers in MDA-MB-231 cells; type: cell-based; settings: 48 hours of exposure, FIG. 12
Excerpt: It should be appreciated that MDA-MB-231 is a high DPAGT1 expressing, triple negative cell line. […] Erb2 (HER2), Erb3 (HER3), and Erb4 (HER4) are elevated.

WecA = WecA (Escherichia coli (strain K12), UniProt P0AC78); test: WecA assay (Table 1); settings: relative to FR-900493 (1)
WecA, sequence (P0AC78 whole entry, looked up, species assumed): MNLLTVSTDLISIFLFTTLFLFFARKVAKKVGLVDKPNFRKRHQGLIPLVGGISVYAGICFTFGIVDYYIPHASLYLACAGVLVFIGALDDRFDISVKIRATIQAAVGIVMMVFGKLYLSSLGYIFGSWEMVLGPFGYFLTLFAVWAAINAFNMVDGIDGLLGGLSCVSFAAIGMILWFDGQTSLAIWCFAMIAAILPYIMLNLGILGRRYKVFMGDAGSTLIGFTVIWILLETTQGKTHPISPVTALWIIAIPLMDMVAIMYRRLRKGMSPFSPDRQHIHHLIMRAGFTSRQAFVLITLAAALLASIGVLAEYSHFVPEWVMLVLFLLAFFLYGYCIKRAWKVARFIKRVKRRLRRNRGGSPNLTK

MraY, sequence (P0A6W3 whole entry, looked up, species assumed): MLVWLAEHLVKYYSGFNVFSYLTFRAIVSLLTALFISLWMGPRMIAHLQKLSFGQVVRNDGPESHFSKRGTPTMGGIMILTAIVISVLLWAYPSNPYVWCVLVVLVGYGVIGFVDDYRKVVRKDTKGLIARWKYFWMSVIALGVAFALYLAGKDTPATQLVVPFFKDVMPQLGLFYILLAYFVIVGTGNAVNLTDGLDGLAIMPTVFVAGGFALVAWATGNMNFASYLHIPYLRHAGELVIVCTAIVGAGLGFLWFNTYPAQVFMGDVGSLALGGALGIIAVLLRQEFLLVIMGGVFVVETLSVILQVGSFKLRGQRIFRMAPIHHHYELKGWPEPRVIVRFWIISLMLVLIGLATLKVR

Structure (SMILES): Cc1ncc([N+](=O)[O-])n1CCO [metronidazole, reference compound]
Inhibition of C. difficile spore germination (C. difficile spores; x5 MIC): did not inhibit the spore germination

C. difficile ATCC43596 MIC (C. difficile ATCC43596): >50 µg/mL
Structure (SMILES): CN(CCCN)[C@H](C(=O)O)[C@H](O[C@@H]1O[C@H](CN)[C@@H](O)[C@H]1O)[C@H]1O[C@@H](n2ccc(=O)[nH]c2=O)[C@H](O)[C@@H]1O [FR-900493 (1), FR-900493]

Structure (SMILES): CCCCCCCc1ccc(NC(=O)CCCN[C@H](C(N)=O)[C@H](OC2O[C@H](CN)[C@@H](O)[C@H]2O)[C@H]2O[C@@H](n3ccc(=O)[nH]c3=O)C(O)[C@H]2O)cc1 (stereo partly drawn) [Compound 10]
Viability of C. difficile spores (C. difficile spores): caused loss of viability
IC50 (sheep blood): 70000 nM

IC50 A / IC50 B (drug alone) ([9]; Table 5): 550 nM
Structure (SMILES): CC(=O)O[C@H]1C(=O)[C@@]2(C)[C@H]([C@H](OC(=O)c3ccccc3)[C@]3(O)C[C@H](OC(=O)[C@H](O)[C@@H](NC(=O)c4ccccc4)c4ccccc4)C(C)=C1C3(C)C)[C@]1(OC(C)=O)CO[C@@H]1C[C@@H]2O [Taxol, Paclitaxel, reference compound]
IC50 [1]: 550 nM
IC50 [2]: 790 nM
IC50 [3]: 57 nM
IC50 [4]: 1080 nM
IC50 [5]: 110 nM
IC50 [6]: 190 nM
IC50 [7]: 20 nM
IC50 [8]: 20 nM
lowest Taxol concentration to kill AsPc-1 cells when combined with 11 ([9]; combined with 11): 7 nM

Structure (SMILES): NC[C@H]1O[C@@H](O[C@H]([C@H]2O[C@@H](n3ccc(=O)[nH]c3=O)[C@H](O)[C@@H]2O)[C@H](NCCCC(=O)NCc2ccc(N3CCC(Oc4ccc(C(F)(F)F)cc4)CC3)cc2)C(N)=O)[C@H](O)[C@@H]1O [Compound 11]
MraY inhibitory activity, more significant than 1 (MraY): > 300 times
Viability of C. difficile spores (C. difficile spores): caused loss of viability
cytotoxic effects on healthy, non-cancerous Vero cells (Vero cells): little cytotoxic effects
IC50 (sheep blood): 206000 nM
water solubility greater than 10 (Water solubility): 200 times
antibacterial activity against C. difficile (C. difficile): displayed antibacterial activity
IC50 [1]: > 100000 nM
IC50 [2]: 7090 nM
IC50 [3]: 220 nM
IC50 [4]: 2850 nM
IC50 [5]: 7090 nM
IC50 [6]: 950 nM
IC50 [7]: < 98 nM
IC50 [8]: < 98 nM
IC50 [10]: 3540 nM
Panc-1 migratory cells (Panc-1 cells): fewer Panc-1 migratory cells than Gemcitabine, Taxol, and Tunicamycin
AsPc-1 cell migration, scratch assay (AsPc-1 cells): less AsPc-1 cell migration than Gemcitabine
effect of combinations of 11 and Taxol ([9]; AsPc-1, all five combinations, FIC < 0.5): synergistic effect
effect of combination of 11 and Gemcitabine ([9]; AsPc-1, both combinations): synergistic effect
IC50 A / IC50 B (drug alone) ([9]; Table 5): 982 nM
IC50 A / IC50 B (drug alone) ([9]; Table 6): 980 nM
AsPc-1 cells dead/alive ([9]; Compound 11 0.0488281 μM + Gemcitabine 0.024414 μM): alive
AsPc-1 cells dead/alive ([9]; Compound 11 0.0488281 μM + Gemcitabine 0.048828 μM): alive
AsPc-1 cells dead/alive ([9]; Compound 11 0.0488281 μM + Gemcitabine 0.097656 μM): dead
AsPc-1 cells dead/alive ([9]; Compound 11 0.0488281 μM + Gemcitabine 0.195313 μM): dead
AsPc-1 cells dead/alive ([9]; Compound 11 0.0488281 μM + Gemcitabine 0.390625 μM): dead
AsPc-1 cells dead/alive ([9]; Compound 11 0.0976563 μM + Gemcitabine 0.024414 μM): alive
AsPc-1 cells dead/alive ([9]; Compound 11 0.0976563 μM + Gemcitabine 0.048828 μM): alive
AsPc-1 cells dead/alive ([9]; Compound 11 0.0976563 μM + Gemcitabine 0.097656 μM): dead
AsPc-1 cells dead/alive ([9]; Compound 11 0.0976563 μM + Gemcitabine 0.195313 μM): dead
AsPc-1 cells dead/alive ([9]; Compound 11 0.0976563 μM + Gemcitabine 0.390625 μM): dead
AsPc-1 cells dead/alive ([9]; Compound 11 0.1953125 μM + Gemcitabine 0.024414 μM): alive
AsPc-1 cells dead/alive ([9]; Compound 11 0.1953125 μM + Gemcitabine 0.048828 μM): alive
AsPc-1 cells dead/alive ([9]; Compound 11 0.1953125 μM + Gemcitabine 0.097656 μM): dead
AsPc-1 cells dead/alive ([9]; Compound 11 0.1953125 μM + Gemcitabine 0.195313 μM): dead
AsPc-1 cells dead/alive ([9]; Compound 11 0.1953125 μM + Gemcitabine 0.390625 μM): dead
AsPc-1 cells dead/alive ([9]; Compound 11 0.390625 μM + Gemcitabine 0.024414 μM): alive
AsPc-1 cells dead/alive ([9]; Compound 11 0.390625 μM + Gemcitabine 0.048828 μM): alive
AsPc-1 cells dead/alive ([9]; Compound 11 0.390625 μM + Gemcitabine 0.097656 μM): dead
AsPc-1 cells dead/alive ([9]; Compound 11 0.390625 μM + Gemcitabine 0.195313 μM): dead
AsPc-1 cells dead/alive ([9]; Compound 11 0.390625 μM + Gemcitabine 0.390625 μM): dead
AsPc-1 cells dead/alive ([9]; Compound 11 0.78125 μM + Gemcitabine 0.024414 μM): alive
AsPc-1 cells dead/alive ([9]; Compound 11 0.78125 μM + Gemcitabine 0.048828 μM): alive
AsPc-1 cells dead/alive ([9]; Compound 11 0.78125 μM + Gemcitabine 0.097656 μM): dead
AsPc-1 cells dead/alive ([9]; Compound 11 0.78125 μM + Gemcitabine 0.195313 μM): dead
AsPc-1 cells dead/alive ([9]; Compound 11 0.78125 μM + Gemcitabine 0.390625 μM): dead
effect compared with paclitaxel (15 mg/kg) (MDA-MB-231 cells [11]): at least equivalent to palctitaxel
effect compared with transtuzumab ([12]; BCI-12, FIG. 11): at least equivalent to transtuzumab
effect of combination of compound 11 and transtuzumab ([12]; BCI-12, about days 20 to 30 of treatment): Improved effects
expression of DPAGT1 (RPKM Expression Value) (MDA-MB-231 cells [13]): sharply reduced
expression of EGFR (HER1) (MDA-MB-231 cells [13]): sharply reduced
expression of Erb2 (HER2) (MDA-MB-231 cells [13]): elevated
expression of Erb3 (HER3) (MDA-MB-231 cells [13]): elevated
expression of Erb4 (HER4) (MDA-MB-231 cells [13]): elevated
WecA inhibitory activity, more significant than 1 (WecA): about 15 fold
